# Laboratory results from BindingDB's records for doi:10.1016/j.ab.2006.10.017 (Pfizer, 2007).
# Target: T1, Renin (Homo sapiens, UniProt P00797)
# T1 sequence (P00797 whole entry): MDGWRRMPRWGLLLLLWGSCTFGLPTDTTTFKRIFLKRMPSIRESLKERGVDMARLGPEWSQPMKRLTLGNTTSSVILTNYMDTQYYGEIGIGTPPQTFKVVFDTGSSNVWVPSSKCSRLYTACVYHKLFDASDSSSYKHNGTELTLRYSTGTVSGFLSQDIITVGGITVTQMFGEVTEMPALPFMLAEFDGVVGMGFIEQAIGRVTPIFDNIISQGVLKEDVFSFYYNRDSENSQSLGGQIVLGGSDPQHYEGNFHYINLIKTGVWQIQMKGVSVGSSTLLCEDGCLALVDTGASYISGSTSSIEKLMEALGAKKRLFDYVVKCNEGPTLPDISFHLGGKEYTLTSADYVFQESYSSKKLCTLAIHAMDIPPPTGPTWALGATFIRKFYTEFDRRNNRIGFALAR
# Experiment: In Vitro Renin IC50 Determinations (Tandem GFP FRET Assay)
# Conditions: pH 7.4; 22 °C
# Source text: The renin assay utilized a tandem Green Flourescent Protein (tGFP) substrate that was hydrolyzed by human rennin.
row,SMILES,IC50 [µM]
1,"CCc1nc(N)nc(N)c1-c1ccc2c(c1)N(CCCOC)C(c1ccccc1)CC2 (stereo unspecified) [6-ethyl-5-[1-(3-methoxypropyl)-2-phenyl-1,2,3,4-tetrahydroquinolin-7-yl]pyrimidine-2,4-diamine]",0.058
2,"CCc1nc(N)nc(NCCNS(=O)(=O)c2ccc3ccccc3c2)c1-c1ccc2c(c1)N(CCCOC)C(=O)C(C)(C)O2 [N-[2-({2-amino-6-ethyl-5-[4-(3-methoxypropyl)-2,2-dimethyl-3-oxo-3,4-dihydro-2H-1,4-benzoxazin-6-yl]pyrimidin-4-yl}amino)ethyl]naphthalene-2-sulfonamide]",0.027
3,"CCc1nc(N)nc(N)c1-c1ccc(NCc2cc(F)cc(F)c2)cc1 [5-(4-{[(3,5-difluorophenyl)methyl]amino}phenyl)-6-ethylpyrimidine-2,4-diamine]",6.56
4,"CCc1nc(N)nc(NCCc2ccccc2NC(=O)c2ccc(N)c(OC)c2)c1-c1ccc2c(c1)N(CCCOC)C(=O)C(C)(C)O2 [4-amino-N-{2-[2-({2-amino-6-ethyl-5-[4-(3-methoxypropyl)-2,2-dimethyl-3-oxo-3,4-dihydro-2H-1,4-benzoxazin-6-yl]pyrimidin-4-yl}amino)ethyl]phenyl}-3-methoxybenzamide]",0.336
5,"CCc1nc(N)nc(N)c1-c1ccc2c3ccccc3n(CCCOC)c2c1 [6-ethyl-5-[9-(3-methoxypropyl)-9H-carbazol-2-yl]pyrimidine-2,4-diamine]",0.173
6,"CCc1nc(N)nc(N)c1-c1ccc2c(c1)N(CCCOC)CCC2 [6-ethyl-5-[1-(3-methoxypropyl)-1,2,3,4-tetrahydroquinolin-7-yl]pyrimidine-2,4-diamine]",0.691
